Earlier results in patent US4970081A, “Controlled-release, low-dose aspirin formulation and method of treating vascular occlusive disease therewith” (Sterling Drug Inc., priority 1989, dated 1990).

How the values were obtained:
[1] = prior art dosage forms
thromboxane B2 (TX) = details: 1 mg every 30 minutes for 10 hours; at 10 hours
prostacyclin (PC) = details: 1 mg every 30 minutes for 10 hours
[2] = system: cyclooxygenase in platelets; details: by acetylating cyclooxygenase in platelets
[3] = system: vascular occlusive events; details: oral aspirin, patients
[4] = system: endothelial cyclooxygenase; details: at the doses given in most clinical trials

release rate [1] [mg per hour]	Structure (SMILES)	decrease in serum TX (thromboxane B2 (TX)) [%]	urinary PC (prostacyclin (PC))	effect on platelet adhesiveness [2]	protection from vascular occlusive events [3]	effect on endothelial cyclooxygenase [4]
4.5	Nc1ccc(S(N)(=O)=O)cc1 [Sulfanilamide]	–	–	–	–	–
–	CC(=O)Oc1ccccc1C(=O)O [aspirin]	66	unaltered	significantly decreases platelet adhesiveness	statistically significant protection	inhibits endothelial cyclooxygenase
